Assay results from US12467035B2, “Method of differentiating mesenchymal stem cells into cardiomyocytes” (CHONNAM NATIONAL UNIVERSITY HOSPITAL, priority 2016, dated 2025).

Tests used:
[1] = tested on: human bone marrow-derived mesenchymal stem cells; assay: Cell viability of mesenchymal stem cells under glucose deprivation (microscopy); type: cell-based; settings: glucose-free medium, 3 μM apicidin (12 mM lactic acid in AC/Lac12)
Procedure: To confirm the status changes of mesenchymal stem cells in glucose deprivation conditions, an existing culture medium was replaced with a glucose-free medium, and then cells were observed after a certain period of time. At this time, cells treated with glucose or lactic acid (the case of cells incubated in a glucose-free medium, the case of cells incubated in a glucose-free medium containing lactic acid, the case of cells incubated in a glucose-free medium containing apicidin, or the case of cells incubated in a glucose-free medium containing lactic acid and apicidin) were observed, and the results are shown in FIG. 1.
First, mesenchymal stem cells were cultured in a 6-well plate filled with high glucose DMEM (4 mM L-glutamine, 4500 mg/L glucose, sodium pyruvate, 10% FBS, 100 U/ml penicillin, 100 μg/ml streptomycin) for one day. After culture, the high glucose DMEM was removed, the mesenchymal stem cells were washed twice with a sterile phosphate-saline buffer solution, and a glucose-free medium was added to the mesenchymal stem cells. At this time, the case of cells incubated in a glucose-free medium, the case of cells incubated in a glucose-free medium containing 3 μM apicidin, and the case of cells incubated in a glucose-free medium containing 3 μM apicidin and 12 mM lactic acid are denoted as Veh, AC, and AC/Lac12, respectively. At 4, 7, 20, and 27 hours after incubation, the morphology of the cells was observed under a microscope and images were obtained.
To evaluate the effect of a culture medium on differentiation of mesenchymal stem cells into cardiomyocytes, as described in Example 1-2, mesenchymal stem cells were incubated in a glucose-free medium, in a glucose-free medium containing apicidin, or a glucose-free medium containing apicidin and lactic acid, and cell viability was determined.

mesenchymal stem cells [2] = assay: qRT-PCR of cardiomyocyte-specific marker genes (GATA4, Nkx2.5, cTnI); type: cell-based, human; settings: glucose deprivation
Procedure: To determine the degree of differentiation of mesenchymal stem cells into cardiomyocytes by addition of apicidin and lactic acid under glucose deprivation conditions, the expression levels of cardiomyocyte-specific genes were quantitatively analyzed in the cells. More specifically, as in the method of Example 1-2, mesenchymal stem cells were incubated in each of the media for 4 or 20 hours. After incubation, the medium was removed from each sample, followed by washing once with PBS. Then, the mesenchymal stem cells were treated with TRIzol and incubated at room temperature for 10 minutes for cell lysis, and then chloroform was added thereto, followed by centrifugation. A supernatant obtained as a result of centrifugation was recovered, and total RNA was extracted. cDNA was synthesized from the total RNA using a reverse transcriptase (MMLV). Real-time PCR was performed using the synthesized cDNA as a template using a QuantiTect SYBR Green PCR kit to determine the expression levels of cardiomyocyte-specific marker genes (GATA4, Nkx2.5, and cTnI).
Changes in cardiomyocyte-specific gene expression by addition of apicidin or apicidin and lactic acid under glucose deprivation conditions were quantified by RT-PCR according to the method of Example 1-3.

mesenchymal stem cells [3] = assay: Immunocytochemistry of cardiomyocyte-specific marker proteins (GATA4, cTnI); type: cell-based, human; settings: glucose deprivation, 4 hours, immunofluorescent staining
Procedure: To confirm the expression of cardiomyocyte-specific marker proteins, immunocytochemistry was performed. First, mesenchymal stem cells were inoculated into a 12-well plate filled with a high glucose DMEM medium and cultured for 1 day. Then, the mesenchymal stem cells were incubated into a glucose-free medium (Veh), a glucose-free medium containing apicidin (AC), or a glucose-free medium containing apicidin and lactic acid (AC/Lac) for 4 hours. After incubation, the cell culture medium was removed from each sample, the mesenchymal stem cells were washed once with PBS, and subsequently the cells were fixed with 3.7% formaldehyde for 15 minutes, followed by treatment with 0.1% Triton X-100 for cell permeabilization. Normal goat serum was added and incubated for 1 hour to reduce background noise. Primary antibodies such as anti-GATA4 antibodies, anti-cTnI antibodies or anti-alpha-sarcomeric actin (a-SA) antibodies were added to the samples, followed by incubation at 4° C. overnight. Then, secondary antibodies labeled with a fluorescent dye (Alexa 488 or Alexa 594) were added, followed by incubation for 1 hour. Nuclei were stained with 4′,6-diamidino-2-phenylindole (DAPI), a fluorescent dye. The samples were mounted on slide glass for observation using a fluorescence microscope. […]

Substance: apicidin
- cell death ([1]; 7 hours): cell death was not observed
- cell death ([1]; 20 hours): partial cell death was observed
- cell death ([1]; 27 hours): cell death was significantly observed
- expression levels of the marker genes (GATA4, Nkx2.5, cTnI) (mesenchymal stem cells [2]; 20 hours after the treatment): remarkably increased
- intracellular gene expression of three cardiomyocyte-specific markers (GATA4, Nkx2.5, and cTnI) (mesenchymal stem cells [2]; incubation 4 or 20 hours): significantly increased
- expression of GATA4 and cTnI, cardiomyocyte-specific proteins (mesenchymal stem cells [3]): increase in the expression
